From patent US11814367B2, “Inhibitors of glycogen synthase 1 (GYS1) and methods of use thereof” (Maze Therapeutics, Inc., priority 2021, dated 2023) come the findings set out here.

SMILES strings stand for the structures.

The subject of experiment [1] is hGYS1 enzyme / glycogen synthesis in HeLa cells. Kind of experiment: GYS1 cell based assay (glycogen synthesis, Glucose-glo). Conditions: Homo sapiens, HeLa, 24 h, 24 h incubation, 20 mM glucose, geometric mean of at least 2 runs. Details: species or system human. In a few lines:
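HeLa cells starved 24 h in medium containing only 1× Glutamax were plated onto compound in medium with 20 mM glucose (1% DMSO final) for 24 h, 37 °C, 5% CO2. Acid lysates were Tris-quenched, glucoamylase-digested (pH 5.3, 1 h, 37 °C) and read by Glucose-glo luminescence. IC50 came from Hill fits, as geometric mean of ≥2 runs.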

Experiment [2] deals with hGYS1 enzyme (recombinant hGYS1/GN1 protein) (Homo sapiens (Human), UniProt P13807). Kind of experiment: GYS1 coupled enzyme assay (PK/LDH). The class given is biochemical. Conditions: hGYS1/GN1 50 nM, UDP-Glucose 0.8 mM, G6P 1 mM; geometric mean of at least 2 runs.
Sequence of hGYS1 enzyme (recombinant hGYS1/GN1 protein) (P13807 whole entry): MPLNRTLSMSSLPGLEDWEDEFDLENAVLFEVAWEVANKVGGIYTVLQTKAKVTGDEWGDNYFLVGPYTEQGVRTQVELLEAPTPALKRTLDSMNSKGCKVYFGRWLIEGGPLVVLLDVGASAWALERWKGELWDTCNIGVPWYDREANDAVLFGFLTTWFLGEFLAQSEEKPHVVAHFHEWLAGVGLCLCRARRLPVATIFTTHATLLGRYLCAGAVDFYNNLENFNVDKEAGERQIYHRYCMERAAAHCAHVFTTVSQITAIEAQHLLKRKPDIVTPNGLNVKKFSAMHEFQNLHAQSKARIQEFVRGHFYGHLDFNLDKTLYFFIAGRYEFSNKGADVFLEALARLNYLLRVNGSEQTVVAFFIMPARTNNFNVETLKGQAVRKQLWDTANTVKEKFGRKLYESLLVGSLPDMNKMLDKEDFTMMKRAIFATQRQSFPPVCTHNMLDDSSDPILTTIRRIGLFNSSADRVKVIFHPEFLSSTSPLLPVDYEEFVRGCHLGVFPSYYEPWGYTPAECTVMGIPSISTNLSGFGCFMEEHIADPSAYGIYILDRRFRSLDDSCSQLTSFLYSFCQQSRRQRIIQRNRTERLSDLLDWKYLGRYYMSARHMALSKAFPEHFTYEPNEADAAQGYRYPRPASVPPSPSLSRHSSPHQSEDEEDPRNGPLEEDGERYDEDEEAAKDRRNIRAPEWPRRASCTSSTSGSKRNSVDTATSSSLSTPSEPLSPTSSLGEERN
Sequence of hGYS1 enzyme (recombinant hGYS1/GN1 protein) (P46976 whole entry partner): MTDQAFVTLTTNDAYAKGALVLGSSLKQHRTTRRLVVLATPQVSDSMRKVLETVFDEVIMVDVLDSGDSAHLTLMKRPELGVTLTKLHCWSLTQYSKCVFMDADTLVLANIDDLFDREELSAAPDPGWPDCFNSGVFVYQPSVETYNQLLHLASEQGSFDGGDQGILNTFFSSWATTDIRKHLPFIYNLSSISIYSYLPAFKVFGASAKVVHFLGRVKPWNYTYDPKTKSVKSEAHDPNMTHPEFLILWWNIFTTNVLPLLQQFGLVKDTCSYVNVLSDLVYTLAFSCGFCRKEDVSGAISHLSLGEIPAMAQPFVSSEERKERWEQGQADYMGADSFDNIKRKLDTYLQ

As usually defined, the IC50 is the concentration at which inhibition is half-maximal. As for `O=C(N[C@H](c1ccccc1)c1ccc(C2CC2)c(F)n1)[C@@H]1C[C@@H](F)CN1C(=O)Cc1cccn2c(=O)[nH]nc12` [Compound 718, (2S,4R)-N-[(R)-(5-cyclopropyl-6-fluoropyridin-2-yl)(phenyl)methyl]-4-fluoro-1-(2-{3-oxo-2H,3H-[1,2,4]triazolo[4,3-a]pyridin-8-yl}acetyl)pyrrolidine-2-carboxamide], the half-inhibitory concentration (IC50) in experiment [1] is above 30000 nM; in experiment [2], 2620 nM.
For the compound `Cc1nccc(NCC(=O)N2C[C@H](F)C[C@H]2C(=O)N[C@H](c2ccccc2)c2ccc(C3CC3)c(F)n2)n1` [Compound 720, (2S,4R)-N-[(R)-(5-cyclopropyl-6-fluoropyridin-2-yl)(phenyl)methyl]-4-fluoro-1-{2-[(2-methylpyrimidin-4-yl)amino]acetyl}pyrrolidine-2-carboxamide], the IC50 was above 30000 nM in experiment [1] and 2450 nM in experiment [2].
For the compound `O=C(N[C@@H](c1ccccc1)c1ccc(C2CC2)c(F)n1)[C@@H]1C[C@@H](F)CN1C(=O)Cc1cnn[nH]1` [Compound 721, (2S,4R)-N-[(S)-(5-cyclopropyl-6-fluoropyridin-2-yl)(phenyl)methyl]-4-fluoro-1-[2-(1H-1,2,3-triazol-5-yl)acetyl]pyrrolidine-2-carboxamide], the IC50 in experiment [1] is 1090 nM; in experiment [2] it was 79 nM.
The like results for `O=C(N[C@@H](c1ccccc1)c1ccc(C2CC2)c(F)n1)[C@@H]1C[C@@H](F)CN1C(=O)Cn1ccc(C(F)(F)F)n1` [Compound 730, (2S,4R)-N-[(S)-(5-cyclopropyl-6-fluoropyridin-2-yl)(phenyl)methyl]-4-fluoro-1-{2-[3-(trifluoromethyl)-1H-pyrazol-1-yl]acetyl}pyrrolidine-2-carboxamide] were, in that order, 760 nM and 37 nM.
For the compound `CCOc1ncc(CC(=O)N2C[C@H](F)C[C@H]2C(=O)N[C@@H](c2ccccc2)c2ccc(C3CC3)c(F)n2)cc1C` [Compound 737, (2S,4R)-N-[(S)-(5-cyclopropyl-6-fluoropyridin-2-yl)(phenyl)methyl]-1-[2-(6-ethoxy-5-methylpyridin-3-yl)acetyl]-4-fluoropyrrolidine-2-carboxamide], the IC50 in experiment [1] came out at 550 nM; in experiment [2], 37 nM.
On to `O=C(N[C@@H](c1ccccc1)c1ccc(C2CC2)c(F)n1)[C@@H]1C[C@@H](F)CN1C(=O)Cc1nc(C(F)(F)F)co1` [Compound 738, (2S,4R)-N-[(S)-(5-cyclopropyl-6-fluoropyridin-2-yl)(phenyl)methyl]-4-fluoro-1-{2-[4-(trifluoromethyl)-1,3-oxazol-2-yl]acetyl}pyrrolidine-2-carboxamide], for which the figures for the IC50 in experiment [1] and in experiment [2] were 1210 nM and 105 nM, respectively.
`CCn1cc(CC(=O)N2C[C@H](F)C[C@H]2C(=O)N[C@@H](c2ccccc2)c2ccc(C3CC3)c(F)n2)cc(C)c1=O` [Compound 739, (2S,4R)-N-[(S)-(5-cyclopropyl-6-fluoropyridin-2-yl)(phenyl)methyl]-1-[2-(1-ethyl-5-methyl-6-oxo-1,6-dihydropyridin-3-yl)acetyl]-4-fluoropyrrolidine-2-carboxamide]: the values for the IC50 in experiment [1] and in experiment [2] were 340 nM and 17 nM, respectively.
On to `CCn1cc(C)cc(CC(=O)N2C[C@H](F)C[C@H]2C(=O)N[C@@H](c2ccccc2)c2ccc(C3CC3)c(F)n2)c1=O` [Compound 740, (2S,4R)-N-[(S)-(5-cyclopropyl-6-fluoropyridin-2-yl)(phenyl)methyl]-1-[2-(1-ethyl-5-methyl-2-oxo-1,2-dihydropyridin-3-yl)acetyl]-4-fluoropyrrolidine-2-carboxamide], for which the concentration for half-maximal inhibition (IC50) in experiment [1] amounted to 320 nM; in experiment [2], 9 nM.
As for `CCn1cccc(CC(=O)N2C[C@H](F)C[C@H]2C(=O)N[C@@H](c2ccccc2)c2ccc(C3CC3)c(F)n2)c1=O` [Compound 741, (2S,4R)-N-[(S)-(5-cyclopropyl-6-fluoropyridin-2-yl)(phenyl)methyl]-1-[2-(1-ethyl-2-oxo-1,2-dihydropyridin-3-yl)acetyl]-4-fluoropyrrolidine-2-carboxamide], the results for the IC50 in experiment [1] and in experiment [2] were 710 nM and 16 nM, respectively.
Turning to `CCn1cc(CC(=O)N2C[C@H](F)C[C@H]2C(=O)N[C@@H](c2ccccc2)c2ccc(C3CC3)c(F)n2)ncc1=O` [Compound 742, (2S,4R)-N-[(S)-(5-cyclopropyl-6-fluoropyridin-2-yl)(phenyl)methyl]-1-[2-(4-ethyl-5-oxo-4,5-dihydropyrazin-2-yl)acetyl]-4-fluoropyrrolidine-2-carboxamide], the IC50 in experiment [1] came to 630 nM; in experiment [2], 24 nM.
In the case of `COc1nc(CC(=O)N2C[C@H](F)C[C@H]2C(=O)N[C@@H](c2ccccc2)c2ccc(C3CC3)c(F)n2)nn1C` [Compound 743, (2S,4R)-N-[(S)-(5-cyclopropyl-6-fluoropyridin-2-yl)(phenyl)methyl]-4-fluoro-1-[2-(5-methoxy-1-methyl-1H-1,2,4-triazol-3-yl)acetyl]pyrrolidine-2-carboxamide], the IC50 was 480 nM in experiment [1] and 28 nM in experiment [2].
Regarding `O=C(N[C@@H](c1ccccc1)c1ccc(C2CC2)c(F)n1)[C@@H]1C[C@@H](F)CN1C(=O)CNC(=O)N(Cc1ccccc1)C(F)(F)F` [Compound 744, (2S,4R)-1-(2-{[benzyl(trifluoromethyl)carbamoyl]amino}acetyl)-N-[(S)-(5-cyclopropyl-6-fluoropyridin-2-yl)(phenyl)methyl]-4-fluoropyrrolidine-2-carboxamide], the IC50 in experiment [1] turned out to be 1520 nM; in experiment [2], 46 nM.
For `O=C(N[C@@H](c1ccccc1)c1ccc(C2CC2)c(F)n1)[C@@H]1C[C@@H](F)CN1C(=O)Cn1nncc1C(F)(F)F` [Compound 745, (2S,4R)-N-[(S)-(5-cyclopropyl-6-fluoropyridin-2-yl)(phenyl)methyl]-4-fluoro-1-{2-[5-(trifluoromethyl)-1H-1,2,3-triazol-1-yl]acetyl}pyrrolidine-2-carboxamide], the IC50 in experiment [1] was determined as 510 nM; in experiment [2], 24 nM.
As to `O=C(N[C@@H](c1ccccc1)c1ccc(C2CC2)c(F)n1)[C@@H]1C[C@@H](F)CN1C(=O)Cc1c[nH]c(=O)cn1` [Compound 746, (2S,4R)-N-[(S)-(5-cyclopropyl-6-fluoropyridin-2-yl)(phenyl)methyl]-4-fluoro-1-[2-(5-oxo-4,5-dihydropyrazin-2-yl)acetyl]pyrrolidine-2-carboxamide], the IC50 amounted to 1620 nM in experiment [1] and 70 nM in experiment [2].
The like results for `O=C(N[C@@H](c1ccccc1)c1ccc(C2CC2)c(F)n1)[C@@H]1C[C@@H](F)CN1C(=O)Cn1nncc1C(F)F` [Compound 747, (2S,4R)-N-[(S)-(5-cyclopropyl-6-fluoropyridin-2-yl)(phenyl)methyl]-1-{2-[5-(difluoromethyl)-1H-1,2,3-triazol-1-yl]acetyl}-4-fluoropyrrolidine-2-carboxamide] were, in that order, 420 nM and 16 nM.
Turning to `CCN(CC)c1cnnn1CC(=O)N1C[C@H](F)C[C@H]1C(=O)N[C@@H](c1ccccc1)c1ccc(C2CC2)c(F)n1` [Compound 748, (2S,4R)-N-[(S)-(5-cyclopropyl-6-fluoropyridin-2-yl)(phenyl)methyl]-1-{2-[5-(diethylamino)-1H-1,2,3-triazol-1-yl]acetyl}-4-fluoropyrrolidine-2-carboxamide], the IC50 was 530 nM in experiment [1] and 15 nM in experiment [2].
